Data published in patent US7285543B2, “Purine inhibitors of fructose-1,6-bisphosphatase” (Metabasis Therapeutics, Inc., priority 1997, dated 2007).
One block for each compound: values may come before it.

Assays:
rat liver FBPase = target: T1, rat liver FBPase (Rattus norvegicus, UniProt P19112); assay: In vitro inhibition of rat liver FBPase; format: biochemical
T1 construct: made in house; host or cells: E. coli BL21
T1 sequence (P19112 2-363 limits assumed): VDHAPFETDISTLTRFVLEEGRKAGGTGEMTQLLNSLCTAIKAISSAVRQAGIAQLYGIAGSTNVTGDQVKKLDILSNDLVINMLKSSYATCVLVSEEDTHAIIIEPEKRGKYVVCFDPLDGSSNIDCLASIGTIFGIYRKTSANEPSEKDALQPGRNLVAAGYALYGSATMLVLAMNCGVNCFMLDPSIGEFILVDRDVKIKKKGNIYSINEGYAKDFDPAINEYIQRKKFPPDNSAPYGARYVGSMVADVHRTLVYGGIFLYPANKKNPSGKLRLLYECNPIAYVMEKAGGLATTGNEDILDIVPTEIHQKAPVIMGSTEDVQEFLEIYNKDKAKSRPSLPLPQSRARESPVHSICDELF
Method: (§1) Mouse liver FBPase was obtained by homogenizing freshly isolated mouse liver in 100 mM Tris-HCl buffer, pH 7.4, containing 1 mM EGTA, and 10% glycerol. […] This fraction was redissolved in the homogenization buffer and desalted on a PD-10 gel filtration column (Biorad) eluted with same. This partially purified fraction was used for enzyme assays. Both rat liver and mouse liver FBPase were assayed as described for human liver FBPase.

mouse liver FBPase = target: T2, mouse liver FBPase (Mus musculus, UniProt Q9QXD6); assay: In vitro inhibition of mouse liver FBPase; format: biochemical
T2 construct: This partially purified fraction was used for enzyme assays; from tissue; host or cells: mouse liver
T2 sequence (Q9QXD6 2-338 limits assumed): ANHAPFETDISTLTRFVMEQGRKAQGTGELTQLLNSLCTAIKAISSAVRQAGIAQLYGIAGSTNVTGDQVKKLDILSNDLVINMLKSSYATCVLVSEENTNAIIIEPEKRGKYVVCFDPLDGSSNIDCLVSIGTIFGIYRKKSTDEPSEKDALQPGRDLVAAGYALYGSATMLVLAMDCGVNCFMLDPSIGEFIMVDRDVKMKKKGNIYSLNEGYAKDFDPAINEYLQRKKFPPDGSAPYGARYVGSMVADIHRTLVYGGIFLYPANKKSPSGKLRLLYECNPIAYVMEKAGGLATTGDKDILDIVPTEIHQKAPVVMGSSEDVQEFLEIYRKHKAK
Method: as §1

[1] = target: T3, allosteric AMP binding site of hlFBPase (Homo sapiens, UniProt P09467); assay: AMP site binding: displacement of 3H-AMP from hlFBPase; settings: for EC50: 3H-AMP, hlFBPase, read-out: ED50 for AMP displacement; for displacement of AMP from hlFBPase (FIG. 3): result in words
T3 construct: made in house; host or cells: E. coli BL21
T3 sequence (P09467 2-338 limits assumed): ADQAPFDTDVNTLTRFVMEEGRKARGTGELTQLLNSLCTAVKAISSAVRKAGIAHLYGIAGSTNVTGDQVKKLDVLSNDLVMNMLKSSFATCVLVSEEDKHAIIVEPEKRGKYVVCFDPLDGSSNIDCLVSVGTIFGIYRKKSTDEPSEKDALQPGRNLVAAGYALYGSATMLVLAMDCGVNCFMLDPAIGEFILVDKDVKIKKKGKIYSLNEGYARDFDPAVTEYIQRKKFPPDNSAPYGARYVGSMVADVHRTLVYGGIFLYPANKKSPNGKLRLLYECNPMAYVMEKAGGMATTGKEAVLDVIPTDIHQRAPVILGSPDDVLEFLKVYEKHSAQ
Method: To determine whether compounds bind to the allosteric AMP binding site of hlFBPase, the enzyme was incubated with radiolabeled AMP in the presence of a range of test compound concentrations. The reaction mixtures consisted of […] ^3H-AMP (54 mCi/mmol) and […] test compound in 25 mM Tris-HCl, pH 7.4, 100 mM KCl and 1 mM MgCl2. 1.45 mg of homogeneous FBPase (±1 nmole) was added last. After a 1 minute incubation, AMP bound to FBPase was separated from unbound AMP by means of a centrifugal ultrafiltration unit (“Ultrafree-MC”, Millipore) used according to the instructions of the manufacturer. The radioactivity in aliquots (100 μl) of the upper compartment of the unit (the retentate, which contains enzyme and label) and the lower compartment (the filtrate, which contains unbound label) were quantified using a Beckman liquid scintillation counter. The amount of AMP bound to the enzyme was estimated by comparing the counts in the filtrate (the unbound label) to the total counts in the retentate.

rat hepatocytes [2] = assay: Inhibition of gluconeogenesis (glucose production from lactate/pyruvate) in rat hepatocytes; format: cell-based; settings: for IC50: from lactate/pyruvate, isolated rat hepatocytes
Method: Hepatocytes were prepared from overnight fasted Sprague-Dawley rats (250-300 g) according to the procedure of Berry and Friend (Berry, M. N., Friend, D. S., J. Cell. Biol. 1969, 43, 506-520) as modified by Groen (Groen, […]., Eur. J. Biochem. 1982, 122, 87-93). […] Incubations were carried out in a 95% oxygen, 5% carbon dioxide atmosphere in closed, 50-mL Falcon tubes submerged in a rapidly shaking water bath (37° C.). After 1 hour, an aliquot (0.25 mL) was removed, transferred to an Eppendorf tube and centrifuged. 50 μl of supernatant was then assayed for glucose content using a Sigma Glucose Oxidase kit as per the manufacturer's instructions.

[3] = target: T4, Adenylate Kinase (rabbit muscle) (Oryctolagus cuniculus, UniProt P00569); assay: AMP site/enzyme selectivity: adenylate kinase; format: biochemical; settings: selectivity table; read-out: Adenylate Kinase (inh.)
T4 construct: purchased Sigma
T4 sequence (P00569 1-194): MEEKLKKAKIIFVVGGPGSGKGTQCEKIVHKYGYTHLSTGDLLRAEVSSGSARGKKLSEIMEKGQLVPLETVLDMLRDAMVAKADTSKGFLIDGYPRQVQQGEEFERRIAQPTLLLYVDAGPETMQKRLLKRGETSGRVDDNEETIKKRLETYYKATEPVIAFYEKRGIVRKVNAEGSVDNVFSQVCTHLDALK

rat hepatocytes [4] = assay: Gluconeogenesis from dihydroxyacetone in rat hepatocytes: glucose production and fructose 1,6-bisphosphate accumulation; format: cell-based
Method: Isolated rat hepatocytes were prepared as described in Example D and incubated under the identical conditions described except that lactate/pyruvate was replaced by 10 mM dihydroxyacetone, a substrate which feeds into the gluconeogenic pathway at a step just prior to FBPase. Reactions were terminated by removing an aliquot (250 μL) of cell suspension and spinning it through a layer of oil (0.8 mL silicone/mineral oil, 4/1) into a 10% perchloric acid layer (100 μL). […] After thorough mixing and centrifugation, the supernatant was analyzed for glucose content as described in Example D, and also for fructose-1,6-bisphosphate. Fructose-1,6-bisphosphate was assayed spectrophotometrically by coupling its enzymatic conversion to glycerol 3-phosphate to the oxidation of NADH, which was monitored at 340 nm. Reaction mixtures (1 mL) consisted of 200 mM Tris-HCl, pH 7.4, 0.3 mM NADH, 2 units/mL glycerol 3-phosphate dehydrogenase, 2 units/mL triosephosphate isomerase, and 50-100 μl cell extract. After a 30 minute preincubation at 37° C., 1 unit/mL of aldolase was added and the change in absorbance measured until a stable value was obtained. 2 moles of NADH are oxidized in this reaction per mole of fructose-1,6-bisphosphate present in the cell extract.

[5] = test system: 18 hours fasted Sprague-Dawley rats; assay: Blood glucose and liver fructose-1,6-bisphosphate accumulation in fasted rats; format: in vivo, rat; settings: 20 mgs/kg intraperitoneally
[6] = Analysis of drug levels in plasma and liver of rats; format: in vivo, rat; settings: 20 mgs/kg intraperitoneally, one hour post injection
[7] = test system: Zucker Diabetic Fatty rats; assay: Blood glucose lowering in Zucker Diabetic Fatty rats; format: in vivo, rat; settings: 50 mg/kg intraperitoneal, 2 hours post dose, 24-hour fasted
Method: Zucker Diabetic Fatty rats purchased at 7 weeks of age were used at age 16 weeks in the 24-hour fasted state. The rats were purchased from Genetics Models Inc. and fed the recommended Purina 5008 diet (6.5% fat). Their fasting hyperglycemia at 24 hours ranged from 150 mg/dL to 310 mg/dL blood glucose.
The stock solution was made up at […] in deionized water and adjusted to neutrality by dropwise, addition of 5 N NaOH. 5 control animals were dosed with saline. Blood glucose was measured at the time of dosing and 2 hours post dose as described in Example F.

[8] = test system: Zucker Diabetic Fatty rats; assay: Inhibition of gluconeogenesis (14C-bicarbonate incorporation into glucose) in Zucker Diabetic Fatty rats; format: in vivo, rat; settings: 50 mg/kg intraperitoneal
Method: Blood samples (0.6 mL) were obtained by cardiac puncture 10 and 20 minutes post tracer injection. Blood (0.5 mL) was diluted into 6 mL deionized water and protein precipitated by addition of 1 mL zinc sulfate (0.3 N) and 1 mL barium hydroxide (0.3 N). The mixture was centrifuged (20 minutes, 1000×g) and 5 mL of the resulting supernatant was then combined with 1 g of a mixed bed ion exchange resin (1 part AG 50W-X8, 100-200 mesh, hydrogen form and 2 parts of AG 1-X8, 100-200 mesh, acetate form) to separate ^14C-bicarbonate from ^14C-glucose. The slurry was shaken at room temperature for four hours and then allowed to settle. An aliquot of the supernatant (0.5 mL) was then counted in 5 mL scintillation cocktail.

[9] = Estimation of the oral bioavailability of prodrugs of phosphonic acids (urinary recovery); format: in vivo, rat; settings: for oral bioavailability: rat, estimated from urinary recovery vs intravenous parent
Method: Prodrugs were dissolved in 10% ethanol/90% polyethylene glycol (mw 400) and administered by oral gavage at doses of approximately 20 or 40 mg/kg parent compound equivalents to 6-hour fasted, Sprague Dawley rats (220-240 g). The rats were subsequently placed in metabolic cages and urine was collected for 24 hours. The quantity of parent compound excreted into urine was determined by HPLC analysis. An ODS column eluted with a gradient from potassium phosphate buffer, pH 5.5 to acetonitrile was employed for these measurements. Detection was at 310-325 nm. […] Parent compounds were typically dissolved in dimethyl sulfoxide, and administered via the tail vein in animals that were briefly anesthetized with halothane.

[10] = test system: 18 hours fasted Sprague Dawley rats; assay: Blood glucose lowering in fasted rats; format: in vivo, rat; settings: 35, 45, and 60 mg/kg intraperitoneally, result in words
Method: The vehicle used for drug administration was dimethylsulfoxide. Blood samples were obtained from the tail vein of conscious animals just prior to injection and then at half-hourly intervals. Blood glucose was measured using a HemoCue Inc. glucose analyzer according to the instructions of the manufacturer.

rat hepatocytes [11] = settings: 10 μM prodrug, within 10 minutes
Method: Rat hepatocytes were prepared and incubated as in Example D, except that the test compound, 16.4, was added to yield a final concentration of 10 μM. Aliquots of the cell suspension were taken at 0, 5, 10, 20, 30, 45, and 60 minutes after drug exposure.

human liver FBPase = target: T5, human liver FBPase (Homo sapiens, UniProt P09467); assay: Inhibition of human liver FBPase (coupled spectrophotometric assay); format: biochemical
T5 construct: made in house; host or cells: E. coli BL21
T5 sequence (P09467 2-338 limits assumed): T3 sequence (P09467 2-338 limits assumed)

IC50 (rat liver FBPase): > 20 µM
IC50 (mouse liver FBPase): > 20 µM
EC50 [1]: 35 µM
Structure (SMILES): Nc1ncnc2c1nc(-c1ccc(P(=O)(O)O)o1)n2CCC1CCCCC1 [Compound 2.2, N^9-(2-cyclohexylethyl)-8-(2-(5-phosphono)furanyl)adenine]
displacement of AMP from hlFBPase (FIG. 3) [1]: displaced AMP from hlFBPase in a dose-dependent manner
IC50 (rat hepatocytes [2]; Hepatocyte): 90 µM

IC50 [3]: > 500 µM
drug level in liver [6]: 51.3 ± 10 nmol/g
concentration at 1 h ([6]; Sprague-Dawley, rat, plasma, ip, 20 mg/kg, read-out: drug level in plasma): 38.5 ± 7 µM
intravenous dose recovered in urine ([9]; intravenous, approximately 10 mg/kg, 24 hours urine): 76.8%
Structure (SMILES): CC(C)(C)Cn1c(-c2ccc(P(=O)(O)O)o2)nc2c(N)ncnc21 [Compound 2.7, N^9-neopentyl-8-(2-(5-phosphono)furanyl)adenine]
IC50 (rat hepatocytes [2]; Hepatocyte): 4.5 µM
IC50 (rat hepatocytes [4]; Hepatocyte, 10 mM dihydroxyacetone, rat hepatocytes): ~5 µM
accumulation of fructose-1,6-bisphosphate in hepatocytes (FIG. 4B) (rat hepatocytes [4]; dihydroxyacetone, result in words): dose-dependent accumulation of fructose-1,6-bisphosphate
elevation of fructose-1,6-bisphosphate levels in liver ([5]; one hour post injection): 10 fold
blood glucose after treatment ([5]; within one hour, lowered from 82±3): 28 ± 9.9 mg/dL
blood glucose lowered, average [7]: ~20%
reduction of incorporation of 14C-bicarbonate into glucose [8]: 75%

Structure (SMILES): CC(C)C(=O)OCOP(=O)(OCOC(=O)C(C)C)c1ccc(-c2nc3c(N)ncnc3n2CC(C)(C)C)o1 [Compound 16.4, 6-Amino-9-neopentyl-8-(2-(5-diisobutyrylmethylphosphono)furanyl)-purine]
IC50 (rat hepatocytes [2]): 3 µM
glucose production in rat hepatocytes (FIG. 11B) (rat hepatocytes [2]; result in words): inhibited glucose production
blood glucose lowering (FIG. 6) [10]: profound glucose lowering
intracellular concentration of compound 2.7 (rat hepatocytes [11]): approximately 80 nmoles/g
oral dose recovered in urine (as parent compound) ([9]; oral, approximately 20 mg/kg, 24 hours urine): 6.2%
oral bioavailability [9]: approximately 8%

Structure (SMILES): CC(C)(C)Cn1c(-c2ccc(P(=O)(OCOC(=O)C(C)(C)C)OCOC(=O)C(C)(C)C)o2)nc2c(N)ncnc21 [Compound 16.5, 6-Amino-9-neopentyl-8-(2-(5-dipivaloxymethylphosphono)furanyl)purine]
oral bioavailability [9]: 5.3%

IC50 (human liver FBPase): 12 µM
EC50 [1]: 250 µM
Structure (SMILES): NC(=O)c1ncn([C@@H]2O[C@H](COP(=O)(O)O)[C@@H](O)[C@H]2O)c1N [ZMP, aminoimidazolecarboxamideriboside monophosphate, reference compound]
displacement of AMP from hlFBPase (FIG. 3) [1]: displaced AMP from hlFBPase in a dose-dependent manner
